# Assay results as given in US8637496B2, “Compounds having a monogalactosyldiacylglycerol synthase inhibitory activity as herbicide or algaecide, herbicide and algaecide compositions” (Commissariat a l'Energie Atomique, priority 2007, dated 2014).
# Structures can show the parent of a compound that is named as a salt.
# Molecular target: T1, MGDG synthase in isolated spinach chloroplast envelope membranes (Spinacia oleracea, UniProt Q9SM44)
# T1 construct: envelope membranes purified from the lysate by sucrose centrifugation gradient; from tissue; host or cells: envelope membranes of chloroplasts from spinach leaves
# T1 sequence (Q9SM44 99-522): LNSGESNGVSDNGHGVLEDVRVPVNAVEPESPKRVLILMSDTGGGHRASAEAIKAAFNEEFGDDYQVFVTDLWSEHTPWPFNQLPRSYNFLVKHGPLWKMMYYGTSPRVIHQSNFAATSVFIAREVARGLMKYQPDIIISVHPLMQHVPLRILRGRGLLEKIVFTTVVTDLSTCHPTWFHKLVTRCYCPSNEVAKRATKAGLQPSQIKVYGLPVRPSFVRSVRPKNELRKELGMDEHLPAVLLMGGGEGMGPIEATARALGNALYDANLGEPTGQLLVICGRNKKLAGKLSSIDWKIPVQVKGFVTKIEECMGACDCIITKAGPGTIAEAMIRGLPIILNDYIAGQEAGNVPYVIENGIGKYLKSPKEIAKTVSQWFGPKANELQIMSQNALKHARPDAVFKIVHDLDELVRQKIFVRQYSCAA
# Assay: MGDG synthase activity in envelope membrane fractions isolated from spinach chloroplasts
# Assay type: biochemical
# Settings: Table 1, obtained in the same manner as FIG. 4; read-out: Inhibitory effect on MGDG synthesis in isolated spinach chloroplast envelope membranes
# Description: All the operations have been carried out as described in the article by Maréchal, E. et al., J. Biol. Chem., 1995, 270, 5714-5722. Crude chloroplasts were obtained from 3-4 kg of spinach leaves and purified by isopycnic centrifugation using Percoll gradients. Purified intact chloroplasts have then been lysed in hypotonic medium and envelope membranes purified from the lysate by sucrose centrifugation gradient as described in the article by Douce, R. and Joyard, J., (1982) in Methods in Chloroplast Molecular Biology (Edelman, M., Hallick R and Chua N H eds), pp 239-256, Elsevier Science Publishers B.V. Amsterdam.
# MGDG synthase activity was assayed as described in the article by Maréchal et al. (1995).
row,IC50,Structure (SMILES)
1,35 µM,"C[C@@H](COC(=O)N1CCC(n2c(=O)[nH]c3ccccc32)CC1)N(Cc1ccccc1)Cc1ccccn1 [Compound 64, (S)-2-(benzyl(pyridin-2-ylmethyl)amino)propyl 4-(2-oxo-2,3-dihydro-1H-benzo[d]imidazol-1-yl)piperidine-1-carboxylate hydrochloride]"
2,50 µM,"O=C(OCCCN(Cc1ccccc1)Cc1cccs1)N1CCC(n2c(=O)[nH]c3ccccc32)CC1 [Compound 66, 3-(benzyl(thiophen-2-ylmethyl)amino)propyl 4-(2-oxo-2,3-dihydro-1H-benzo[d]imidazol-1-yl)piperidine-1-carboxylate hydrochloride]"
3,12 µM,"O=C(OCCCN(Cc1ccccc1)Cc1ccc(F)cc1)N1CCC(n2c(=O)[nH]c3ccccc32)CC1 [Compound 67, 3-(benzyl(4-fluorobenzyl)amino)propyl 4-(2-oxo-2,3-dihydro-1H-benzo[d]imidazol-1-yl)piperidine-1-carboxylate hydrochloride]"
4,80 µM,"COc1cccc(CN(CCCOC(=O)N2CCC(n3c(=O)[nH]c4ccccc43)CC2)Cc2ccccc2)c1 [Compound 68, 3-(benzyl(3-methoxybenzyl)amino)propyl 4-(2-oxo-2,3-dihydro-1H-benzo[d]imidazol-1-yl)piperidine-1-carboxylate hydrochloride]"
5,30 µM,"O=C(OCCCN(Cc1ccccc1)Cc1cccc(Cl)c1)N1CCC(n2c(=O)[nH]c3ccccc32)CC1 [Compound 69, 3-(benzyl(3-chlorobenzyl)amino)propyl 4-(2-oxo-2,3-dihydro-1H-benzo[d]imidazol-1-yl)piperidine-1-carboxylate hydrochloride]"
6,60 µM,"O=C(OCCCN(Cc1ccccc1)Cc1cccc2ccccc12)N1CCC(n2c(=O)[nH]c3ccccc32)CC1 [Compound 70, 3-(benzyl(naphthalen-1-ylmethyl)amino)propyl 4-(2-oxo-2,3-dihydro-1H-benzo[d]imidazol-1-yl)piperidine-1-carboxylate hydrochloride]"
7,50 µM,"O=C(OCCCN(Cc1ccccc1)Cc1ccnc2ccccc12)N1CCC(n2c(=O)[nH]c3ccccc32)CC1 [Compound 71, 3-(benzyl(quinolin-4-ylmethyl)amino)propyl 4-(2-oxo-2,3-dihydro-1H-benzo[d]imidazol-1-yl)piperidine-1-carboxylate hydrochloride]"
8,50 µM,"Cn1c(CN(CCCOC(=O)N2CCC(n3c(=O)[nH]c4ccccc43)CC2)Cc2ccccc2)cc2ccccc21 [Compound 72, 3-(benzyl((1-methyl-1H-indol-2-yl)methyl)amino)propyl 4-(2-oxo-2,3-dihydro-1H-benzo[d]imidazol-1-yl)piperidine-1-carboxylate hydrochloride]"
9,15 µM,"O=C(OCCCN(Cc1ccccc1)Cc1cccc(Oc2ccccc2)c1)N1CCC(n2c(=O)[nH]c3ccccc32)CC1 [Compound 73, 3-(benzyl(3-phenoxybenzyl)amino)propyl 4-(2-oxo-2,3-dihydro-1H-benzo[d]imidazol-1-yl)piperidine-1-carboxylate hydrochloride]"
10,8 µM,"O=C(OCCN(Cc1ccccc1)Cc1ccc(Cl)cc1)N1CCC(n2c(=O)[nH]c3ccccc32)CC1 [Compound 74, 2-(benzyl(4-chlorobenzyl)amino)ethyl 4-(2-oxo-2,3-dihydro-1H-benzo[d]imidazol-1-yl)piperidine-1-carboxylate]"
11,10 µM,"COc1ccccc1CN(CCOC(=O)N1CCC(n2c(=O)[nH]c3ccccc32)CC1)Cc1ccccc1 [Compound 75, 2-(benzyl(2-methoxybenzyl)amino)ethyl 4-(2-oxo-2,3-dihydro-1H-benzo[d]imidazol-1-yl)piperidine-1-carboxylate]"
12,20 µM,"O=C(OCCN(Cc1ccccc1)Cc1ccccc1OCc1ccccc1)N1CCC(n2c(=O)[nH]c3ccccc32)CC1 [Compound 76, 2-(benzyl(2-(benzyloxy)benzyl)amino)ethyl 4-(2-oxo-2,3-dihydro-1H-benzo[d]imidazol-1-yl)piperidine-1-carboxylate]"
13,30 µM,"O=C(OCCN(Cc1ccccc1)Cc1ccc(OCc2ccccc2)cc1)N1CCC(n2c(=O)[nH]c3ccccc32)CC1 [Compound 77, 2-(benzyl(4-(benzyloxy)benzyl)amino)ethyl 4-(2-oxo-2,3-dihydro-1H-benzo[d]imidazol-1-yl)piperidine-1-carboxylate]"
14,8 µM,"O=C(OCCN(Cc1ccccc1)Cc1c(F)cccc1F)N1CCC(n2c(=O)[nH]c3ccccc32)CC1 [Compound 78, 2-(benzyl(2,6-difluorobenzyl)amino)ethyl 4-(2-oxo-2,3-dihydro-1H-benzo[d]imidazol-1-yl)piperidine-1-carboxylate]"
15,25 µM,"C[C@@H](COC(=O)N1CCC(n2c(=O)[nH]c3ccccc32)CC1)N(Cc1ccccc1)Cc1ccco1 [Compound 79, (S)-2-(benzyl(furan-2-ylmethyl)amino)propyl 4-(2-oxo-2,3-dihydro-1H-benzo[d]imidazol-1-yl)piperidine-1-carboxylate]"
16,8 µM,"O=C(OCCN(Cc1ccccc1)Cc1cccc(OCc2ccccc2)c1)N1CCC(n2c(=O)[nH]c3ccccc32)CC1 [Compound 81, 2-(benzyl(3-(benzyloxy)benzyl)amino)ethyl 4-(2-oxo-2,3-dihydro-1H-benzo[d]imidazol-1-yl)piperidine-1-carboxylate]"
17,50 µM,"O=C(OCCN(C/C=C/c1ccccc1)Cc1ccccc1)N1CCC(n2c(=O)[nH]c3ccccc32)CC1 [Compound 82, (E)-2-(benzyl(cinnamyl)amino)ethyl 4-(2-oxo-2,3-dihydro-1H-benzo[d]imidazol-1-yl)piperidine-1-carboxylate]"
18,12 µM,"O=C(OCCCN(Cc1ccccc1)Cc1ccc(Cl)cc1)N1CCC(n2c(=O)[nH]c3ccccc32)CC1 [Compound 83, 3-(benzyl(4-chlorobenzyl)amino)propyl 4-(2-oxo-2,3-dihydro-1H-benzo[d]imidazol-1-yl)piperidine-1-carboxylate]"
19,45 µM,"O=C(OCCCN(Cc1ccccc1)Cc1cccc(OCc2ccccc2)c1)N1CCC(n2c(=O)[nH]c3ccccc32)CC1 [Compound 84, 3-(benzyl(3-(benzyloxy)benzyl)amino)propyl 4-(2-oxo-2,3-dihydro-1H-benzo[d]imidazol-1-yl)piperidine-1-carboxylate]"

row,Structure (SMILES),IC50
1,"CC(C)(C)OC(=O)N(CCOC(=O)N1CCC(n2c(=O)[nH]c3ccccc32)CC1)Cc1ccccc1 [Compound 65, 2-(benzyl(tert-butoxycarbonyl)amino)ethyl 4-(2-oxo-2,3-dihydro-1H-benzo[d]imidazol-1-yl)piperidine-1-carboxylate]",12 µM
2,"O=C(OCCCN(Cc1ccccc1)Cc1ccoc1)N1CCC(n2c(=O)[nH]c3ccccc32)CC1 [Compound 80, 3-(benzyl(furan-3-ylmethyl)amino)propyl 4-(2-oxo-2,3-dihydro-1H-benzo[d]imidazol-1-yl)piperidine-1-carboxylate]",50 µM
3,"CC(C)C[C@@H](COC(=O)N1CCC(n2c(=O)[nH]c3ccccc32)CC1)N(Cc1ccccc1)C(=O)OC(C)(C)C [Compound 85, (S)-2-(benzyl(tert-butoxycarbonyl)amino)-4-methylpentyl 4-(2-oxo-2,3-dihydro-1H-benzo[d]imidazol-1-yl)piperidine-1-carboxylate]",10 µM
